Experiments:
[1] = Calcium excretion (hypercalcemia assay) in rats; format: in vivo; details: for urinary calcium levels: concentration 20 fold greater than the concentration of calcitriol
Description: Compound I(a) was tested for its effect on calcium excretion and weight gain in rats using a protocol described in Posner et al. J. Med. Chem. 41, 3008-3014, 1998.

[2] = biological target: T1, CYP24 (Homo sapiens, UniProt Q07973); experiment: CYP24 enzyme assay (induced HPK1A-ras cells); format: cell-based; details: [3H]-1,25(OH)2D3 substrate
T1 construct: When the HPK1A-ras cells are 80-90% confluent, add 1 μL 10^−5 M 1,25(OH)2D3 to 1 mL medium; endogenous in cells; host or cells: HPK1A-ras cells induced with 10^-8 M 1,25(OH)2D3
T1 sequence (Q07973 36-514): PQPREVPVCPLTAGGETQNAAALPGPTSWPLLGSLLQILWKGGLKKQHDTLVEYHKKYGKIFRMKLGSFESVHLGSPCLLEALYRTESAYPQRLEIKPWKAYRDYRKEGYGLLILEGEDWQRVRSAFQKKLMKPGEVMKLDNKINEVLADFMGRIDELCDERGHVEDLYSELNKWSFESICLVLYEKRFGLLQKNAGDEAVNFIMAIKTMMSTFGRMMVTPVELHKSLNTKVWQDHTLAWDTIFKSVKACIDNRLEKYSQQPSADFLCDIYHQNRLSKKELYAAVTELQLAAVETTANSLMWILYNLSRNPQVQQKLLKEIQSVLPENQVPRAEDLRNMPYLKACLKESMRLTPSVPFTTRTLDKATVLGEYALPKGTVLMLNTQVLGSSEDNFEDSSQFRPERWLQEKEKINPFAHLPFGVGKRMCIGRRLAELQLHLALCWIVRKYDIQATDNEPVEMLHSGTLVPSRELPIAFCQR
Description: CYP24 Enzyme Assay (Induced KPK1A-ras Cells)
(i) Material and Reagents:
Saturated KCl: KCl 30 g, H2O400 ml
1. Induction of HPK1A-ras cells (The day before assay)
When the HPK1A-ras cells are 80-90% confluent, add 1 μL 10^−5 M 1,25(OH)2D3 to 1 mL medium in the plate (final concentration is 10^−8 M).
2. Preparation of cell suspension
After 18 to 20 hours induction, remove the medium and wash the cell twice with PBS. Then tripsinize the cells from plate, centrifuge (2,000 rpm, 5 min) and suspend cells pellet in DMEM medium+1%BSA.
Count the cells and adjust cells density to 250,000/150 μL, add 150 μL cell suspension to each well in 48-well plate. (including 3 well as no cell control, and 3 well cells without drug or inhibitor as control).
3. Add 25 μL ketoconazole (final concentration 10^−5 M, 10^−6 M, 10^−7 M, 10^−1 M) or drugs into each designated well. Keep the plate in 37° C. for 10 min.
4. Preparation of substrate
Take certain amount of DMEM+1%BSA medium (25*Well number+200) μL to a tube, add certain amount of 3H-1,25(OH)2D3 (well number+2) μL and certain amount of 100 mM DPPD (well number/5) μL and mix them by vortex.
Add 25 mL substrate to each well, incubate the plate at 37° C. for 3 hour.
Add 25 mL substrate to counting plate (2 well) as a total count.
6. Lipid extraction and counting
Add 500 μL methanol to each well to stop the reaction, transfer them to tube
Add 250 μL dichloromethane and vortex.
Add 250 μL dichloromethane and 250 μL saturated KCl, and vortex.
Centrifuge at 4000 rpm for 5 min.
Transfer 100 μL of aqueous phase (upper phase) to counting plastic counting plate. Add 600 μL of scintillation fluid to each well. Count the plate in scintillation counter.
7. Calculation enzyme activity
CPM of cell control after subtraction of CPM of NCC is as 100% enzyme activity.
Enzyme activity=(CPM in test compounds well —CPM in NCC well)/(CPM in Cell control−CPM in NCC well)*100%

[3] = biological target: T2, CYP27B1 (UniProt O15528); experiment: Assay of CYP1-alpha hydroxylase (transfected COS-1 cells); format: cell-based; details: COS-1 cells transfected with CYP-1alpha hydroxylase cDNA, [3H-26,27]-25(OH)D3 substrate
T2 sequence (O15528 1-508): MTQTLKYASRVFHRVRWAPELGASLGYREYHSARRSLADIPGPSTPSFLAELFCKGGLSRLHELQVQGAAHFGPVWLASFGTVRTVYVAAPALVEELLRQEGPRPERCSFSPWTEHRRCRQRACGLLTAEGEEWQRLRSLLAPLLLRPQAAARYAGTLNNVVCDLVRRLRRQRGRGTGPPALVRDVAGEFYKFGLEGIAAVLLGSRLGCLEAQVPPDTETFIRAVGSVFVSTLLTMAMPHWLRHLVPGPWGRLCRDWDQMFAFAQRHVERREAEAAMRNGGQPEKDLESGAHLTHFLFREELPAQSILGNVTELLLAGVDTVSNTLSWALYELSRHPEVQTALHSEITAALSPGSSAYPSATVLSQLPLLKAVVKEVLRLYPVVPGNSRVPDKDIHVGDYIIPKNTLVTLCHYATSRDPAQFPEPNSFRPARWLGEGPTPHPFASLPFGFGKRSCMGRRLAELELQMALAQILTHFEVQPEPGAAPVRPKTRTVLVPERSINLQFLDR
Description: Assay of CYP1-Alpha Hydroxylase (Using Transfected COS-1 Cells)
1. COS-1 cells (50-80% confluent)
2. FuGene 6 Transfection Reagent
3. PcDNA vector containing CYP-1alpha hydroxylase cDNA (1 μg/μl)
5. DMEM Medium (serum-free)
(ii) Transfection Cocktail Preparation (The Amount Depends on How Many Wells Transfected)
1. To a sterile tube, add serum-free medium (100 μl per well), Then add FuGene 6 Reagent (3 μl per well). Tap gently to mix. Pay attention to the order.
2. Add DNA solution (1 μg per well) to the prediluted FuGene 6 Reagent from step 2
3. Gently tap the tube to mix the contents. […] Incubate for 15 min at room temperature (no more than 45 min).
1. Trypsinize Cos-1 cells, centrifuge cell suspension, suspend cells pellet in DMEM medium+10% FCS.
2. Dilute the cells suspension to 750,000 cell/ml (75 cell/square),
1. Add 1.7 ml DMEM medium+10 O %FCS to each well of 6 well plate.
2. Transfer the correct volume of the cell suspension (200 μl/well) to the transfection cocktail. Mix them gently
3. Add 0.3 ml of the mixture to each well. Make sure that the same amount cells are added to each well. Swirl the wells to ensure even dispersal.
4. Incubate the cells for 24 hours at 37° C., 5% CO2 until enzyme activity assay.
(B) Enzyme Activity Assay
1. Wash cells once with PBS. Be careful, don't disturb the attached cells
2. Add 0.55 ml medium (DMEM+1%BSA) each well.
3. Add 0.025 ml medium containing test compounds
4. Incubate the cells for 10 minutes
6. Incubate the cells for 2 hour.
7. Add 1.5 ml Methanol to stop reaction
8. Add internal standard.
9. Transfer the medium to labeled tube.
10. Add 0.75 ml dichloromethane, vortex and keep in room temperature for 15 minutes.
11. Add 0.75 ml dichloromethane and 0.75 ml saturated KCl
12. Vortex and centrifuge
13. Remove upper phase and dry the lower phase in Speed-Vac
14. Add 110 μl mobile phase, vortex and centrifuge for 5 min.
15. Transfer 105 μl to the insert in HPLC vial.
16. HPLC analysis conditions:
Solvent: Hexane/isopropanol/methanol (91/7/2)
Detector: UV detector and radioactive detector.

[4] = biological target: T3, CYP27A1 (Homo sapiens, UniProt Q02318); experiment: CYP27A1 enzyme assay; format: biochemical
T3 construct: fused on or other part: Possibly fused to adrenodoxin reductase and adrenodoxin, if the fusion enzyme of Dilworth et al. 1996 was used
T3 sequence (Q02318 34-531): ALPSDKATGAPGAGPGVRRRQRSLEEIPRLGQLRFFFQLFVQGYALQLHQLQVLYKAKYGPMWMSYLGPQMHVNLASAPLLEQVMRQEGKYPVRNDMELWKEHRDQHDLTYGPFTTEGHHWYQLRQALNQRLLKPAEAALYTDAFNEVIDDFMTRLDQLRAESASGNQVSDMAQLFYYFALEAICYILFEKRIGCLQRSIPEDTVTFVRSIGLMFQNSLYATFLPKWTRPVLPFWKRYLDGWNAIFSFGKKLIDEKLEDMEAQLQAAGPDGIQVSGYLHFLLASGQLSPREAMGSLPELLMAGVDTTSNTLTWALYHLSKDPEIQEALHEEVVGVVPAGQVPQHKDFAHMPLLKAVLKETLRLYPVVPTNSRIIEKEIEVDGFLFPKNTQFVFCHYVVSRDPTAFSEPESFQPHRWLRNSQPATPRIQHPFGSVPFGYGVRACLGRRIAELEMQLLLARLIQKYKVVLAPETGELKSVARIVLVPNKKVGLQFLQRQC
Text: Dilworth F J, Black S M, Guo Y D, Miller W L, Jones G. Construction of a P450c27 fusion enzyme: a useful tool for analysis of vitamin D3 25-hydroxylase (1996) Biochem J 320:267-271
Sawada N, Sakaki T, Ohta M, Inouye K. Metabolism of vitamin D (3) by human CYP27A1 (2000) Biochem Biophys Res Commun 273(3):977-84

C[C@H](CCS(=O)(=O)c1ccccc1)[C@H]1CC[C@H]2/C(=C/C=C3C[C@@H](O)C[C@H](O)C3)CCC[C@]12C [I(u)]
calcemic activity ([1]; calcium excretion protocol): strongly non-calcemic | IC50 [2]: 0.16 µM

C=C1/C(=C\C=C2/CCC[C@]3(C)[C@@H]([C@H](C)CCS(=O)(=O)c4ccc(C)cc4)CC[C@@H]23)C[C@@H](O)C[C@@H]1O [I(g)]
IC50 [3]: > 1 µM | IC50 [2]: 0.212 µM

C=C1/C(=C\C=C2/CCC[C@]3(C)[C@@H]([C@H](C)CCS(=O)(=O)c4ccc(Cl)cc4)CC[C@@H]23)C[C@@H](O)C[C@@H]1O [I(e)]
IC50 [3]: > 1 µM | IC50 [2]: 0.094 µM

C=C1/C(=C\C=C2/CCC[C@]3(C)[C@@H]([C@H](C)CCS(=O)(=O)C(C)(C)C)CC[C@@H]23)C[C@@H](O)C[C@@H]1O [I(v)]
IC50 [3]: > 10 µM | IC50 [2]: 0.219 µM

C=C1/C(=C\C=C2/CCC[C@]3(C)[C@@H]([C@H](C)CCS(=O)(=O)C(C)C)CC[C@@H]23)C[C@@H](O)C[C@@H]1O [I(w)]
IC50 [3]: 9.2 µM | IC50 [2]: 0.09 µM

C=C1/C(=C\C=C2/CCC[C@]3(C)C([C@H](C)CCSC(C)(C)C)=CC[C@@H]23)C[C@@H](O)C[C@@H]1O [I(gg)]
IC50 [3]: 8.46 µM | IC50 [2]: 0.467 µM

C=C1/C(=C\C=C2/CCC[C@]3(C)[C@@H]([C@H](C)CCS(=O)(=O)c4ccccc4)CC[C@@H]23)C[C@@H](O)C[C@@H]1O [I(a)]
IC50 [3]: > 10 µM | urinary calcium levels [1]: did not show an increase in urinary calcium levels | urinary calcium levels ([1]; listed as Ia): did not increase the levels of calcium in the urine | IC50 [4]: > 10 µM

C=C1/C(=C\C=C2/CCC[C@]3(C)[C@@H]([C@H](C)CCS(=O)(=O)c4ccc(Cl)c(Cl)c4)CC[C@@H]23)C[C@@H](O)C[C@@H]1O [I(i)]
IC50 [3]: > 1 µM | IC50 [2]: 0.092 µM

From patent US20030149005A1, “24-sulfur-substituted analogs of 1alpha, 25-dihydroxy vitamin D3” (priority 2001, published 2003)
